“Also recorded” adds a separate entry of the source. Where no end group is shown, it is not given here.
Assays:
[1] = tested on: MCF 7 breast cancer cell line; test: Induction of apoptosis (APO-ONE caspase 3/7) and cell viability (CellTiter Blue); type: cell-based, human; design: key: cell viability decreased (+); or not (−)
Protocol: (§1) MCF-7, MDA-MB-231, MDA-MB-415, MDA-MB-468 were grown in DMEM modified with 10% (v/v) fetal bovine serum, 2 mM L-glutamine and 50 ug/mL each of penicillin and streptomycin.
(§2) The levels of apoptotic induction and cell viability were determined by multiplexing the measurements for single samples. CellTiter Blue and APO-ONE assay systems from Promega allows the determination of cell viability correlated to cell number, and induction of apoptosis. This protocol uses a fluorgenic peptide that contains a peptide recognition-sequence for caspase 3 and caspase 7, […] proteolytic enzymes of the apoptosis cascade. The CellTiter Blue reagent was added to wells in a 96-well plate containing cells under test, immediately after addition of peptide solution or vehicle. About 5000 cells were plated into the wells the day before. At the chosen time (Day 1, Day 2 etc.) the fluorescence was measured at 590 nm (emission) after excitation at 560 nm. The caspase 3/7 activity was measured (485 nm Ex/527 nm Em) in the same wells after adding 120 uL of the Apo-ONE reagent, freeze fracturing at −80° C. for 1 hr, and incubating for 1 hr at room temperature.
(§3) For this work, the concentrations of SorC13 and SorC27 used were 0 uM, 1 uM, 10 uM and 100 uM. The experiments extended over a 5 to 7 day period. All measurements were done in quadruplicate with both a blank (no cells) and control (vehicle, no peptide) used to correct the test measurements. The time-response data, and the dose-response data were plotted as means±standard error of the mean. Any statistical comparisons were done with the Student's t-test or by ANOVA analysis over the dose course. The level of statistical significance was considered to be the 95% confidence interval (i.e., p≤0.05).
To benchmark the effect of both C-type peptides to the gold-standard treatment presently used against breast cancer (Paclitaxel), SorC13, SorC27 and Paclitaxel (10 uM) were compared. Both the APO-ONE assay (Promega) and the CellTiter Blue were used on the panel of breast cancer cell lines. […]

[2] = tested on: T 47D breast cancer cell line; test: as above; type: cell-based, human; design: key to Decline in cell viability: cell viability decreased (+); or not (−)
Protocol: T 47D was cultured in RPMI medium (Sigma-Aldrich) modified with 15% fetal bovine serum, 2 mM L-glutamine, 1 mM sodium pyruvate, 0.1 mg/mL bovine insulin and penicillin plus streptomycin mixture (50 ug/mL each).
as §2, §3
To benchmark the effect of both C-type peptides to the gold-standard treatment presently used against breast cancer (Paclitaxel), SorC13, SorC27 and Paclitaxel (10 uM) were compared. Both the APO-ONE assay (Promega) and the CellTiter Blue were used on the panel of breast cancer cell lines. The data were compared directly in terms of mean response and tested for significant difference.

[3] = tested on: MCF 7 breast cancer cell line; test: as above; type: cell-based, human; design: key: decreased (+); or not (−); conditions: SorC27
Protocol: as §1, §2
(§4) For this work, the concentrations of SorC13 and SorC27 used were 0 uM, 1 uM, 10 uM and 100 uM. The experiments extended over a 5 to 7 day period. […]

[4] = tested on: human SKOV3 ovarian cancer tumors; test: SKOV3 ovarian cancer xenograft, SorC27 versus saline and CAT (Example 14); type: in vivo, NOD/SCID mice
Protocol: Tumor volumes (V) are calculated by caliper measurement using standard measurements of the width (W), length (L) and thickness (T) of tumors. Animals are randomized into treatment groups so that the median tumor volumes of each group were similar at the start of dosing. % T/C values, as a measure of efficacy, are determined where C refers to volume of control or untreated tumor, and T refers to volume of treated tumor.
SKOV3 cells were obtained from ATCC, cultured and expanded to suitable numbers to establish xenografts in mice and then formulated into gel pellets and grafted under the renal capsule of surrogate NOD/SCID mice in order to establish the tumors. Tumors are then permitted to develop in vivo until the majority reach 100-200 mm^3 in tumor volume, which typically requires 1-2 weeks following implantation. Once xenografts are established, they are harvested and cut into multiple uniform pieces. Sixteen to eighteen pieces were implanted subcutaneously into each NOD/SCID mouse for experimentation. After 2 days, the animals are treated with either the test peptides or CAT or combinations.
Mice implanted with SKOV3 cells as detailed above received saline (control), SorC27 (400 mg/kg), by i.p. injection every day for 12 days or CAT injections one every week. The tumor volume and body weights were measured every day. As well, general health of the animals was monitored every day. The results shown in FIG. 12 are presented in terms of tumor load normalized to body weight. […] By Day 12 there was no statistically significant difference between CAT and SorC27 at this dose.

[5] = Degradation rate in human plasma (HPLC); type: in vitro ADME
Protocol: Rat plasma was obtained from blood taken from sacrificed rats (Sprague-Dawley) and placed into heparinized glass vials to prevent clotting. Whole blood was centrifuged at 8000×g for 5 minutes to spin down the cells leaving the plasma as supernatant. Human whole blood samples from healthy humans were taken in lithium-heparinized vacuum tubes. The samples were placed into 2.0 mL microcentrifuge tubes and centrifuged at 8000×g for 5 min. The plasma was carefully separated from red blood cells and used immediately.
Determination of degradation rate of the C-peptides was done by measuring, with the HPLC protocol, the amount of either SorC13 or SorC27 in dosed plasma samples, after time. Sample tubes (500 uL) containing 2 uL of 2 mM Pefabloc were previously prepared for sample delivery SorC13 (1.0 mg) or SorC27 (2.0 mg) were dissolved in 1.0 mL of fresh plasma (37° C.) and placed in an incubating water bath at 37° C. A sample (100 uL) was taken immediately and quenched in sample tubes containing 2 uL of 2 mM Pefabloc, mixed vigorously and immediately frozen at −80° C. This initial sample represented time zero for the run. At successive time intervals of 5 minutes, 100 uL samples were withdrawn, quenched in Pefabloc, mixed, and frozen at −80° C. until analysis.
The rat plasma degradation rate was determined for the plasma from three different rats, while the rate of degradation in human plasma used six separate plasma samples. The data used were the means (±SEM) and were fitted to a simple one-phase exponential decay model to determine the half-life of the two peptides. This also allowed the calculation of a static degradation rate. FIG. 11 is illustrative of the rate at which SorC27 was degraded in human plasma.

[6] = Repeated dose toxicity study; type: in vivo, NOD/SCID mice
Protocol: In order to investigate repeated dose toxicity, SorC27 at 400 mg/kg formulated in saline was injected (i.p.) into NOD/SCID mice every day for 12 days. The animals were observed cage-side each day and examined at the end of the experimental period.

[7] = tested on: MDA-MB-468 (MB 468) breast cancer cell line; test: Induction of apoptosis (APO-ONE caspase 3/7) and cell viability (CellTiter Blue); type: cell-based, human; design: key: decreased (+); or not (−); conditions: SorC27
Protocol: as §1, §2, §4

[8] = 400 mg/kg i.p. every day for 12 days
[9] = 400 mg/kg, daily i.p. injection for 12 days

Sequence | Decline in cell viability ([1]; SorC13 1 uM) | Decline in cell viability ([1]; SorC13 10 uM) | Decline in cell viability ([1]; SorC13 100 uM) | Apoptosis Index (1 = no effect) ([2]; SorC13 1 uM) | Decline in cell viability ([2]; SorC13 1 uM) | Apoptosis Index (1 = no effect) ([2]; SorC13 10 uM) | Decline in cell viability ([2]; SorC13 10 uM) | induction of apoptosis compared with Paclitaxel (10 uM) ([2]; SorC13 10 uM) | Apoptosis Index (1 = no effect) ([2]; SorC13 100 uM) | Decline in cell viability ([2]; SorC13 100 uM) | Decline in cell viability [3] | % T/C ratio (mean tumour volume of treated/mean tumour volume of control) [4, 8] | decrease in tumour growth [4, 8] | tumor volume normalized to body weight versus control saline ([4]; over 12 days, SorC27 400 mg/kg i.p. daily, CAT once every week, 400 mg/kg) | binding to plasma proteins ([5]; human plasma) | half-life ([5]; human, plasma, 37° C.) | toxicity of multiple dose ([6]; 400 mg/kg i.p. each day for 12 days) | Repeated dose in NOD/SCID mice: body weight [6, 9] | Repeated dose in NOD/SCID mice: toxic effects [6, 9] | Decline in cell viability [7]
KEFLHPSKVDLPR [SorC13, KEFLHPSKVDLPR] | − | − | + | 2.0 | + | 2.8 | + | more effective at inducing a faster and more intense apoptotic response | 4.3 | + |  |  |  |  |  |  |  |  |  | 
EGKLSSNDTEGGLCKEFLHPSKVDLPR [SorC27] |  |  |  |  |  |  |  |  |  |  | + | 39.9% | 60.1% | greatly reduced tumor volume; also recorded: reduced the tumor volume significantly | doesn't bind to | 20 min | no indication of toxicity; also recorded: no toxic effect, weight loss or change in organs on necropsy | No loss of body weight | no toxic effects noted | +
